Consider five compounds from patent publication US11192880B2, “Quinolone compounds as inhibitors of the BCL6 BTB domain protein-protein interaction and/or as BCL6 degraders” (Ontario Institute for Cancer Research (OICR), priority 2017, dated 2021).

As a reminder, the IC50 is the concentration needed to halve the response being measured. A low value points to inhibition by little substance. In general, EC50 refers to the midpoint of the concentration-response curve. As usually defined, the Kd is the concentration at which binding is half-saturated.

Data set [1] concerns BCL6 reporter construct in SuDHL4-3xBCL6-TK-Luc cells. Description: Cell-based BCL6 reporter luciferase assay. The conditions noted are these: 48 h, two days. The procedure: (c) Cell-Based Luciferase Assay:
A BCL6 reporter construct containing three copies of the consensus BCL6 binding site, the TK promoter, and the firefly luciferase gene was stably expressed in SuDHL4 cells after lentivirus infection and selection with Blasticidin. SuDHL4-3xBCL6-TK-Luc cells were seeded into a Viewplate 384-well assay dish at 15,000 cells/well in 25 ul medium (Alpha-MEM high glucose containing 10% FBS, 25 mM HEPES, […] GlutaMAX, 100 ug/ml Normocin, and […] Gentamycin, Invitrogen). A HP D300 digital dispenser was used to dose cells with DMSO or test compounds across a 10-point range of concentrations (high dose of 10 uM), and cultures were grown in a humidified 5% CO2 incubator at 37° C. After two days, plates were removed from incubator and equilibrated to room temperature. An equal volume of neolite reporter gene assay reagent was added to each well, and samples were processed according to manufacturer's instructions (Perkin Elmer). Luminescent signal was measured using an Envision™ plate reader equipped with a US-Luminescence detector.

The nature of data set [2]: Liver microsomal metabolic stability, human. The format is in vitro ADME. The conditions noted are these: % remaining after 60 minutes, 1 μM compound, 0.5 mg/mL protein. The procedure: (§1) (f) Microsomal Stability Assays
(§2) Liver Microsomal Metabolic Stability
(§3) Working stocks were initially diluted to a concentration of 40.0 μM in 0.1 M potassium phosphate buffer (pH 7.4) before addition to the reaction vials. CD-1 mouse (male) or pooled human liver microsomes (Corning Gentest) were utilized at a final concentration of 0.5 mg/mL (protein). Duplicate wells were used for each time point (0 and 60 minutes). Reactions were carried out at 37° C. in an orbital shaker at 175 rpm, and the final DMSO concentration was kept constant at 0.1%. The final volume for each reaction was 100 μL, which includes the addition of an NADPH-Regeneration Solution (NRS) mix. This NRS mix is comprised of glucose 6-phosphate dehydrogenase, NADP+, MgCl2, and glucose 6-phosphate. Upon completion of the 60 minute time point, reactions were terminated by the addition of 2-volumes (200 μL) of ice-cold, acetonitrile containing 0.5% formic acid and internal standard. Samples were then centrifuged at 4,000 rpm for 10 minutes to remove debris and precipitated protein. Approximately 150 μL of supernatant was subsequently transferred to a new 96 well microplate for LC/MS analysis:
(§4) Narrow-window mass extraction LC-MS analysis was performed for all samples in this study using a Waters Xevo quadrupole time-of-flight (QTof) mass spectrometer to determine relative peak areas of test compounds. The percent remaining values are calculated using the following equations: % remaining=(A)/A0×100
(§5) A is area response after incubation
(§6) A0 is area response at initial time point

Data set [3] addresses BTB domain of BCL6 / SMRT BBD peptide (Homo sapiens (Human), UniProt P41182). Nature of the data set: BCL6-BTB-SMRT peptide inhibition fluorescence polarization (FP) screen. The format is binding. The conditions noted are these: 1.25 uM BCL6-BTB, 20 nM Bodipy-TMR SMRT peptide probe; lower limit of assay 1 uM. As to the method: (a) BCL6-BTB-SMRT Peptide Inhibition Fluorescence Polarization (FP) Screen
Compounds were dissolved in 100% DMSO at 10 mM, assayed fresh, and then stored at −20° C. for repeat studies and future work. The reaction mixture consists of 1.25 uM of the 25 kd BCL6-BTB domain (Thioredoxin-His6-STag-TEV-biotinylation-thrombin-BCL6 amino acids 1-129) plus 20 nM of the peptide probe Ac-GSLVATVKEAGRSIHEIPA (SEQ ID NO:1) with 16 amino-acids (16-mer peptide) from the SMRT BBD (1414-1429) with a Bodipy-TMR fluorescent label on the lysine. […] 20 ul of this assay mixture was added to each well of the 384 well plates with the exception of the control wells that contained no protein (for setting the minimum FP value). Compounds were directly sprayed using an HP D300 Digital Dispenser from 10 mM DMSO stocks onto black 384 well plates (greiner bio-one #781900) in a concentration range from 1 uM to 500 uM (10 points in duplicate). The assay was equilibrated for 1 hour prior to reading the FP values (Ex 540 nm/Em 580 nm) with a Perkin Elmer Envision plate reader. The results were curve fitted and IC50 values were calculated using the BioAssay software from CambridgeSoft.

Data set [4] is described as follows: Liver microsomal metabolic stability, mouse. The format is in vitro ADME. The conditions noted are these: % remaining after 60 minutes, 1 μM compound, 0.5 mg/mL protein. The procedure: as §1, §2, §3, §4, §5, §6
Data set [5] deals with Karpas422 cells. Nature of the data set: Tumor cell growth inhibition assay. The format is cell-based. The settings on record: Homo sapiens, KARPAS-422, 144 h, six days, ATPlite, read-out: GI Karpas EC50. As to the method:
(d) Tumor Cell Growth Inhibition Assay:
Karpas422 cells were seeded into a 96-well plate at 2,000 cells/well in 150 ul medium (Alpha-MEM containing 10% FBS, […] Normocin, and […] Gentamycin, Invitrogen). A HP D300 digital dispenser was used to dose cells with DMSO or test compounds across a 10-point range of concentrations (high dose of 5 uM), and cultures were grown in a humidified 5% CO2 incubator at 37° C. After six days, plates were removed from incubator and equilibrated to room temperature. An equal volume of ATPlite assay reagent was added to each well, and samples were processed according to manufacturer's instructions (Perkin Elmer). Luminescent signal was measured using an Envision plate reader equipped with a US-Luminescence detector.
Background: Cellular ATP, detected with luciferase, serves as a proxy for viable cell number.

The target in data set [6] is BCL6 BTB domain (Homo sapiens (Human), UniProt P41182). Description: Surface plasmon resonance (SPR) assay. The format is binding. The conditions noted are these: single cycle kinetic analysis, Biacore T200. The procedure: (b) Surface Plasmon Resonance (SPR) Assay
SPR studies were performed using a Biacore™ T200 instrument (GE Health Sciences Inc.). The BCL6 BTB protein used in the FP assay was biotinylated using the site specific biotinylating enzyme BirA, and then cleaved with TEV protease to produce the BCL6 BTB domain (biotin-thrombin-BCL6 amino acids 1-129; 17 kd) that was use in SPR. This protein was stably captured (1000 RU) to streptavidin coupled SA chips (BR-1005-31, GE Health Sciences Inc.) according to the manufacture's protocol. Compounds were dissolved in 100% DMSO at 10 mM and 2-fold serial dilutions were done in 100% DMSO. For SPR analysis the serially titrated compounds were diluted 1/20 into buffer (10 mM HEPES pH7.4, 150 mM NaCl, 0.05% Tween-20, 3 mM EDTA) giving a final concentration of 5% DMSO. The Biacore flow rate was set at 100 ul/min. For KD determinations, single cycle kinetic analysis was performed with an on time of 60 seconds, and an off time of 300 seconds. Curve fitting and KD calculations were done with the Biacore T200 Evaluation software (GE Health Sciences Inc).
(SPR reads the build-up and loss of mass on a sensor chip optically.)

The conditions of data set [7]: reported; limits its use in animal studies; cited from earlier work.

Regarding `CNC(=O)COc1cc2cc(Nc3nc(N4C[C@@H](C)O[C@@H](C)C4)ncc3Cl)ccc2n(C)c1=O` [Compound X-2], the IC50 in data set [1] amounted to 91.9 nM; in data set [3], 1200 nM. Further, the “Human Liver Microsomes (HLM, % @ 1 h)” value in data set [2] is given as 74%. Moreover, the “Mouse Liver Microsomes (MLM, % @ 1 h)” value in data set [4] is 70%. For the same compound, the EC50 in data set [5] amounted to 30.6 nM. Besides, the Kd in data set [6] turned out to be 10.3 nM.

As to `CNC(=O)COc1cc2cc(Nc3nc(N4C[C@H](C)C[C@H](C)C4)ncc3Cl)ccc2n(C)c1=O` [BI-3802, reference compound], the bioavailability entry in data set [7] was “poor bioavailability”. Also, in data set [2], the “Human Liver Microsomes (HLM, % @ 1 h)” value stood at 25%. Besides, the “Mouse Liver Microsomes (MLM, % @ 1 h)” value in data set [4] is reported as 13%.

Turning to `CNC(=O)COc1cc2cc(Nc3nc(N4CC5CCC(C4)C5(F)F)ncc3Cl)ccc2n(C)c1=O` [Compound X-3], the IC50 in data set [1] came out at 643 nM; in data set [3] it was 1800 nM. Also, the “Human Liver Microsomes (HLM, % @ 1 h)” value in data set [2] stood at 44%. The “Mouse Liver Microsomes (MLM, % @ 1 h)” value in data set [4] was found to be 0.5%. For the same compound, the EC50 in data set [5] stood at 37.8 nM. The Kd in data set [6] worked out at 15.7 nM.

As to `CNC(=O)COc1cc2cc(Nc3nc(N4C[C@@H](C)N[C@@H](C)C4)ncc3Cl)ccc2n(C)c1=O` [Compound X-1, 2-((6-((5-chloro-2-((3S,5R)-3,5-dimethylpiperazin-1-yl)pyrimidin-4-yl)amino)-1-methyl-2-oxo-1,2-dihydroquinolin-3-yl)oxy)-N-methylacetamide], the IC50 was determined as 433 nM in data set [1] and 1600 nM in data set [3]. Besides, the “Human Liver Microsomes (HLM, % @ 1 h)” value in data set [2] came out at 34%. In addition, the “Mouse Liver Microsomes (MLM, % @ 1 h)” value in data set [4] is 15%. The EC50 in data set [5] is 92.6 nM. This compound also came in with a Kd in data set [6] of 5.73 nM.

As for `CNC(=O)COc1cc2cc(Nc3nc(N4C[C@@H](C)C(F)(F)[C@@H](C)C4)ncc3Cl)ccc2n(C)c1=O` [Ia], the results for the IC50 in data set [1] and in data set [3] were 6.84 nM and 900 nM, respectively. Moreover, the “Human Liver Microsomes (HLM, % @ 1 h)” value in data set [2] was determined as 77%. In addition, in data set [4], the “Mouse Liver Microsomes (MLM, % @ 1 h)” value is 61%. In addition, the EC50 in data set [5] worked out at 3.36 nM. In addition, the Kd in data set [6] was 5.33 nM.
